This note sets out measurements from ChEMBL document CHEMBL4828704, “Efophylins A and B, Two C2-Asymmetric Macrodiolide Immunosuppressants from Streptomyces malaysiensis” (J Nat Prod, 2021).

The structures appear in SMILES notation. Activity calls are given as the source filed them. The calls are words filed in the database; no cut-off is given here.

Experiment [1] concerns the target Calcineurin subunit B type 1 (Homo sapiens, UniProt P63098). In words: Inhibition of CNB (unknown origin) using p-NPP as substrate preincubated for 10 mins followed by substrate addition by spectrophotometry analysis.
In experiment [2] the test system is T-cell. In words: Inhibition of ConA-induced IL-2 expression in BALB/c mouse T-lymphocyte measured after 24 hrs by ELISA. The format is functional, tissue-based.
The subject of experiment [3] is Splenocyte. Briefly: Immunosuppressive activity in C57BL/6 mouse splenocyte assessed as inhibition of mixed lymphocyte reaction when cocultured with mitomycin-C pretreated BALB/c mouse splenocyte measured up to 72 hrs by CCK-8 assay. The format is functional, cell-based. As to conditions: C57BL/6, Splenocyte. On the technique in general: Tetrazolium assays rely on reduction of a dye to a coloured formazan, in cell work by metabolically active cells.

Experiment [4] in a line: Inhibition of ConA-induced proliferation of BALB/c mouse splenocyte measured after 72 hrs by CCK-8 assay. The format is functional, tissue-based.
Experiment [5] relates to Splenocyte. In words: Cytotoxicity against BALB/c mouse splenocyte assessed as reduction in cell viability measured after 72 hrs by CCK-8 assay. The format is cell-based.
Experiment [6] relates to T-cell. In words: Inhibition of ConA-induced IL-2 expression in BALB/c mouse T-lymphocyte at 40 uM measured after 24 hrs by ELISA. The format is functional, tissue-based. In general terms: ELISA stands for enzyme-linked immunosorbent assay.
In experiment [7] the test system is Splenocyte. Briefly: Inhibition of NFAT activation in BALB/c mouse splenocyte at 5 to 30 uM by immunoblotting analysis. The class given is tissue-based. As to conditions: dose 5-30 µM.
The subject of experiment [8] is Splenocyte. Briefly: Inhibition of NFAT phosphorylation in BALB/c mouse splenocyte at 5 to 30 uM by immunoblotting analysis. The class given is tissue-based. The following applies: dose 5-30 µM. A general note: A western blot detects proteins with antibodies after separation by electrophoresis.

Sequence of Calcineurin subunit B type 1 (P63098 2-170 limits assumed): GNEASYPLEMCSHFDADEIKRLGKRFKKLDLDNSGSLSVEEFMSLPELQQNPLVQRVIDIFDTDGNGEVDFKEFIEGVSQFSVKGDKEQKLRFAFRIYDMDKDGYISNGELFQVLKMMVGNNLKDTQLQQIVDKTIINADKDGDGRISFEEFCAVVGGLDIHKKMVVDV

Take `CC[C@@H]1[C@@H](C)O[C@@](O)([C@@H](C)[C@H](O)[C@H](C)[C@H]2OC(=O)/C=C/C=C/[C@H](C)[C@@H]([C@@H](C)[C@@H](O)[C@H](C)C(O)/C=C/[C@H](CC)[C@@H](C)O)OC(=O)/C=C/C=C/[C@@H]2C)C[C@H]1O[C@H]1C[C@H](O)[C@H](O)[C@H](C)O1` (some centres undefined): the inhibition result in experiment [1] was “inactive”.

Turning to `CC[C@@H]1[C@@H](C)O[C@@](OC)([C@@H](C)[C@H](O)[C@H](C)[C@H]2OC(=O)/C=C/C=C/[C@H](C)[C@@H]([C@@H](C)[C@@H](O)[C@H](C)C(O)/C=C/[C@H](CC)[C@@H](C)O)OC(=O)/C=C/C=C/[C@@H]2C)C[C@H]1O[C@H]1C[C@H](O)[C@H](O)[C@H](C)O1` (some centres undefined), the inhibition entry in the experiment with T-cell [2] is “Dose-Dependent Effect”. The IC50 – broadly, the midpoint of a concentration-inhibition curve – turned out to be 27.9 µM with Splenocyte [3], 24.6 µM in experiment [4], 49 µM with Splenocyte [5] and 24 µM in experiment [1]. The inhibition entry in the experiment with T-cell [6], with Splenocyte [7] and in the experiment with Splenocyte [8] was “Active” throughout.
